Experimental data as given in the NIST ThermoML archive (doi:10.1007/s10765-012-1185-1).
Numbers after ± are expanded uncertainties.

Conditions: Gas

Compound: [C-]#[O+] [carbon monoxide]
- viscosity (288.72 K, Mass density=0.52 kg/m3): 0.01732 ± 0.00012 mPa·s
- viscosity (288.91 K, Mass density=0.78 kg/m3): 0.01733 ± 0.00012 mPa·s
- viscosity (292.39 K, Mass density=0.52 kg/m3): 0.0175 ± 0.00012 mPa·s
- viscosity (296.53 K, Mass density=0.78 kg/m3): 0.0177 ± 0.00013 mPa·s
- viscosity (296.67 K, Mass density=0.78 kg/m3): 0.0177 ± 0.00013 mPa·s
- viscosity (296.74 K, Mass density=0.52 kg/m3): 0.01769 ± 0.00013 mPa·s
- viscosity (296.81 K, Mass density=0.52 kg/m3): 0.0177 ± 0.00013 mPa·s
- viscosity (297.19 K, Mass density=0.52 kg/m3): 0.01771 ± 0.00013 mPa·s
- viscosity (298.54 K, Mass density=0.52 kg/m3): 0.01778 ± 0.00013 mPa·s
- viscosity (298.58 K, Mass density=0.52 kg/m3): 0.01778 ± 0.00013 mPa·s
- viscosity (299.09 K, Mass density=0.52 kg/m3): 0.0178 ± 0.00013 mPa·s
- viscosity (299.27 K, Mass density=0.52 kg/m3): 0.01781 ± 0.00013 mPa·s
- viscosity (323.27 K, Mass density=0.78 kg/m3): 0.0189 ± 0.00013 mPa·s
- viscosity (323.95 K, Mass density=0.52 kg/m3): 0.01894 ± 0.00013 mPa·s
- viscosity (349.98 K, Mass density=0.78 kg/m3): 0.02007 ± 0.00014 mPa·s
- viscosity (350.09 K, Mass density=0.52 kg/m3): 0.02007 ± 0.00014 mPa·s
- viscosity (377.57 K, Mass density=0.78 kg/m3): 0.02123 ± 0.00015 mPa·s
- viscosity (377.81 K, Mass density=0.52 kg/m3): 0.02123 ± 0.00015 mPa·s
- viscosity (405.3 K, Mass density=0.78 kg/m3): 0.02235 ± 0.00015 mPa·s
- viscosity (405.55 K, Mass density=0.52 kg/m3): 0.02236 ± 0.00015 mPa·s
- viscosity (433.29 K, Mass density=0.78 kg/m3): 0.02345 ± 0.00016 mPa·s
- viscosity (433.45 K, Mass density=0.52 kg/m3): 0.02345 ± 0.00016 mPa·s
- viscosity (461.39 K, Mass density=0.78 kg/m3): 0.02452 ± 0.00016 mPa·s
- viscosity (461.45 K, Mass density=0.52 kg/m3): 0.02451 ± 0.00016 mPa·s
- viscosity (489.68 K, Mass density=0.78 kg/m3): 0.02558 ± 0.00017 mPa·s
- viscosity (489.81 K, Mass density=0.52 kg/m3): 0.02557 ± 0.00017 mPa·s
- viscosity (518.13 K, Mass density=0.78 kg/m3): 0.02659 ± 0.00018 mPa·s
- viscosity (518.44 K, Mass density=0.52 kg/m3): 0.0266 ± 0.00018 mPa·s
- viscosity (542.05 K, Mass density=0.52 kg/m3): 0.02744 ± 0.00018 mPa·s
- viscosity (542.09 K, Mass density=0.78 kg/m3): 0.02744 ± 0.00018 mPa·s
- viscosity (564.73 K, Mass density=0.78 kg/m3): 0.02822 ± 0.00019 mPa·s
- viscosity (593.37 K, Mass density=0.52 kg/m3): 0.02919 ± 0.00019 mPa·s
- viscosity (593.52 K, Mass density=0.78 kg/m3): 0.0292 ± 0.00019 mPa·s
- viscosity (622.5 K, Mass density=0.52 kg/m3): 0.03015 ± 0.0002 mPa·s
- viscosity (622.67 K, Mass density=0.78 kg/m3): 0.03016 ± 0.0002 mPa·s
- viscosity (651.51 K, Mass density=0.78 kg/m3): 0.0311 ± 0.0002 mPa·s
- viscosity (651.68 K, Mass density=0.52 kg/m3): 0.0311 ± 0.0002 mPa·s
- viscosity (680.94 K, Mass density=0.78 kg/m3): 0.03203 ± 0.00021 mPa·s
- viscosity (681.07 K, Mass density=0.52 kg/m3): 0.03203 ± 0.00021 mPa·s

Compound: N#N [nitrogen]
- viscosity (291.55 K, Mass density=0.72 kg/m3): 0.01747 ± 0.00012 mPa·s
- viscosity (294.73 K, Mass density=0.72 kg/m3): 0.01762 ± 0.00013 mPa·s
- viscosity (296.88 K, Mass density=0.72 kg/m3): 0.01771 ± 0.00013 mPa·s
- viscosity (324 K, Mass density=0.72 kg/m3): 0.01894 ± 0.00013 mPa·s
- viscosity (350.42 K, Mass density=0.72 kg/m3): 0.02009 ± 0.00014 mPa·s
- viscosity (378.04 K, Mass density=0.72 kg/m3): 0.02125 ± 0.00015 mPa·s
- viscosity (405.75 K, Mass density=0.72 kg/m3): 0.02237 ± 0.00015 mPa·s
- viscosity (433.79 K, Mass density=0.72 kg/m3): 0.02347 ± 0.00016 mPa·s
- viscosity (461.81 K, Mass density=0.72 kg/m3): 0.02453 ± 0.00016 mPa·s
- viscosity (490.21 K, Mass density=0.72 kg/m3): 0.02559 ± 0.00017 mPa·s
- viscosity (518.59 K, Mass density=0.72 kg/m3): 0.02661 ± 0.00018 mPa·s
- viscosity (542.47 K, Mass density=0.72 kg/m3): 0.02747 ± 0.00018 mPa·s
- viscosity (565.16 K, Mass density=0.72 kg/m3): 0.02825 ± 0.00019 mPa·s
- viscosity (594.04 K, Mass density=0.72 kg/m3): 0.02922 ± 0.00019 mPa·s
- viscosity (623.22 K, Mass density=0.72 kg/m3): 0.0302 ± 0.0002 mPa·s
- viscosity (652.36 K, Mass density=0.72 kg/m3): 0.03114 ± 0.0002 mPa·s
- viscosity (681.99 K, Mass density=0.72 kg/m3): 0.03209 ± 0.00021 mPa·s
